Measurements as given in patent US6248739A, “Quinolinecarboxamides as antiviral agents” (Pharmacia & Upjohn Company, priority 1999, dated 2001).
Where a name gives a salt, the structure may show the parent alone.

The molecules below were run against T1, HCMV polymerase (Human cytomegalovirus, UniProt P08546) (assay: biochemical). Conditions: HCMV polymerase; SPA; modified assay: compounds in 100% DMSO, 4.5 mM DTT.
T1 construct: made in house; host or cells: recombinant baculovirus-infected SF-9 insect cells
T1 sequence (P08546 whole entry): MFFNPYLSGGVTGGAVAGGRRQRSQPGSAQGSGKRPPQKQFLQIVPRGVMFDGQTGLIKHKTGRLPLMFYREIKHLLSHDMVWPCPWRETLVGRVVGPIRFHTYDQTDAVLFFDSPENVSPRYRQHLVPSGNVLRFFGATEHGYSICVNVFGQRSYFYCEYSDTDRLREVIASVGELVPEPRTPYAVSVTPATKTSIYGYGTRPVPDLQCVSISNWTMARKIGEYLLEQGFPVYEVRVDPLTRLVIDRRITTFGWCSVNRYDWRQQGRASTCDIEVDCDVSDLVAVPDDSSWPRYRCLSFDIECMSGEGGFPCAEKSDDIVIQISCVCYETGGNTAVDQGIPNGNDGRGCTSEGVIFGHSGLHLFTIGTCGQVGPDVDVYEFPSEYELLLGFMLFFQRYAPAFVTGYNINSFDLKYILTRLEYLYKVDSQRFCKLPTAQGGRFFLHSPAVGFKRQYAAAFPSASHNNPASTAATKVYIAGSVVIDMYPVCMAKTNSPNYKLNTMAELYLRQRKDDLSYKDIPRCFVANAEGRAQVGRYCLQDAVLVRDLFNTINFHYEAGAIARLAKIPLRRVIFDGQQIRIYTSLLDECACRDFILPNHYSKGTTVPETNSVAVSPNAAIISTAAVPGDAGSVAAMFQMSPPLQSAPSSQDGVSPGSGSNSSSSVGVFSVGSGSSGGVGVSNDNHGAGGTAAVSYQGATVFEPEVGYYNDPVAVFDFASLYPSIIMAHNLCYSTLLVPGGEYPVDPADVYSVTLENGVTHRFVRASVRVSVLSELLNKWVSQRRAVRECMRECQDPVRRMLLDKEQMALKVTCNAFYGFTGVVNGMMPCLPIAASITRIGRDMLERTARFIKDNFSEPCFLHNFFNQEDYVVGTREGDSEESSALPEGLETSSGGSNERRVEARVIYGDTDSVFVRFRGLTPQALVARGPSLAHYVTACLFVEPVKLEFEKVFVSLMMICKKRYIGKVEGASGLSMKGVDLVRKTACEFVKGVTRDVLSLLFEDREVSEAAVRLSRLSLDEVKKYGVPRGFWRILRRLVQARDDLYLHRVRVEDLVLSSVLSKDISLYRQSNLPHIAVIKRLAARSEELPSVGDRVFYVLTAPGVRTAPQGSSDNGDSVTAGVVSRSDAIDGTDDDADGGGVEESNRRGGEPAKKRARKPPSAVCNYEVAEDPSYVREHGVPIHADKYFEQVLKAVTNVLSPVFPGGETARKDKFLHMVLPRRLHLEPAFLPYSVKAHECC
Method: The HCMV polymerase assay is performed using a scintillation proximity assay (SPA) as described in several references, such as N. D. Cook, et al., Pharmaceutical Manufacturing International, pages 49-53 (1992); K. Takeuchi, Laboratory Practice, September issue (1992); U.S. Pat. No. 4,568,649 (1986); which are incorporated by reference herein. Reactions are performed in 96-well plates. The assay is conducted in 100 μl volume with 5.4 mM HEPES (pH 7.5), 11.7 mM KCl, 4.5 mM MgCl2, 0.36 mg/ml BSA, and 90 nM ^3 H-dTTP. Assays are run with and without CHAPS, (3-[(3-Cholamidopropyl)dimethylammonio]-1-propane-sulfonate) at a final concentration of 2 mM. HCMV polymerase is diluted in enzyme dilution buffer containing 50% glycerol, 250 mM NaCl, 10 mM HEPES (pH 7.5), 100 μg/ml BSA, and 0.01% sodium azide. The HCMV polymerase, which is expressed in recombinant baculovirus-infected SF-9 cells and purified according to literature procedures, is added at 10% (or 10 μl) of the final reaction volume, i.e., 100 μl. Compounds are diluted in 50% DMSO and 10 μl are added to each well. Control wells contain an equivalent concentration of DMSO. Unless noted otherwise, reactions are initiated via the addition of 6 nM biotinylated poly(dA)-oligo(dT) template/primer to reaction mixtures containing the enzyme, substrate, and compounds of interest. Plates are incubated in a 25 C. or 37 C. H2 O bath and terminated via the addition of 40 μl/reaction of 0.5 M EDTA (pH 8) per well. Reactions are terminated within the time-frame during which substrate incorporation is linear and varied depending upon the enzyme and conditions used, i.e., 30 min. for HCMV polymerase. Ten μl of streptavidin-SPA beads (20 mg/ml in PBS/10% glycerol) are added following termination of the reaction. Plates are incubated 10 min. at 37 C., then equilibrated to room temperature, and counted on a Packard Topcount. Linear regressions are performed and IC50 's are calculated using computer software.
A modified version of the above HCMV polymerase assay is performed as described above, but with the following changes: Compounds are diluted in 100% DMSO until final dilution into assay buffer. In the previous assay, compounds are diluted in 50% DMSO. 4.5 mM dithiotherotol (DTT) is added to the polymerase buffer.

Row | SMILES | IC50 [nM]
1 | O=C(NCc1ccc(F)cc1)c1cn(N2CCOCC2)c2ccc(CN3CCOCC3)cc2c1=O [Example 125, N-(4-Fluorobenzyl)-1-(4-morpholinyl)-6-(4-morpholinylmethyl)-4-oxo-1,4-dihydro-3-quinolinecarboxamide] | 1100
2 | Cn1cc(C(=O)NCc2ccc(Cl)cc2)c(=O)c2cc(CN3C[C@@H]4C[C@H]3CO4)ccc21 [Example 48, N-(4-Chlorobenzyl)-1-methyl-6-(2-oxa-5-azabicyclo(2.2. 1]-hept-5-ylmethyl)-4-oxo-1,4-dihydro-3-quinolinecarboxamide] | 13600
3 | CN1CCC(n2cc(C(=O)NCc3ccc(Cl)cc3)c(=O)c3cc(CN4CCOCC4)ccc32)CC1 [Example 109, N-(4-Chlorobenzyl)-1-(1-methyl-4-piperidinyl)-6-(4-morpholinylmethyl)-4-oxo-1,4-dihydro-3-quinolinecarboxamide] | 480
4 | Cn1cc(C(=O)NCc2ccc(Cl)cc2)c(=O)c2cc(/C=C\CO)ccc21 [Example 23, N-(4-chlorobenzyl)-6-[(Z)-3-hydroxy-1-propenyl]-1-methyl-4-oxo-1,4-dihydro-3-quinolinecarboxamide] | 620
5 | CN(C)CCCn1cc(C(=O)NCc2ccc(Cl)cc2)c(=O)c2cc(C#CCO)ccc21 [Example 20, N-(4-Chlorobenzyl)-1-[3-(dimethylamino)propyl]-6-(3-hydroxy-1-propynyl)-4-oxo-1,4-dihydro-3-quinolinecarboxamide] | 3800
6 | CN(CCS(=O)(=O)O)C(=O)CCCCCCC(=O)OCC#Cc1ccc2c(c1)c(=O)c(C(=O)NCc1ccc(Cl)cc1)cn2C [Example 37, Sodium 2-[(8-{[3-(3-{[(^4-chlorobenzyl)amino]carbonyl}-1-methyl-4-oxo-1,4-dihydro-6-quinolinyl)-2-propynyl]oxy}-8-oxooctanoyl)(methyl)amino]-1-ethanesulfonate] | > 20000
7 | C=Cn1cc(C(=O)NCc2ccc(Cl)cc2)c(=O)c2cc(C#CCO)ccc21 [Example 21, N-(4-Chlorobenzyl)-6-(3-hydroxy-1-propynyl)-4-oxo-1-vinyl-1,4-dihydro-3-quinolinecarboxamide] | 1400
8 | COCCOCCn1cc(C(=O)NCc2ccc(Cl)cc2)c(=O)c2cc(CN(C)[C@H](C)[C@@H](O)c3ccccc3)ccc21 [Example 88, N-(4-Chlorobenzyl)-6-{[[(1R,2S)-2-hydroxy-1-methyl-2-phenylethyl](methyl)amino]methyl}-1-[2-(2-methoxyethoxy)ethyl]-4-oxo-1,4-dihydro-3-quinolinecarboxamide] | 5900
9 | CN(C)n1cc(C(=O)NCc2ccc(Cl)cc2)c(=O)c2ccccc21 [Example 121, N-(4-Chlorobenzyl)-1-(dimethylamino)-4-oxo-1,4-dihydro-3-quinolinecarboxamide] | 3900
10 | O=C(NCc1ccc(Cl)cc1)c1cn(COc2ccc(Cl)cc2)c2ccc(CN3CCOCC3)cc2c1=O [Example 104, N-(4-Chlorobenzyl)-1-[(4-chlorophenoxy)methyl]-6-(4-morpholinylmethyl)-4-oxo-1,4-dihydro-3-quinolinecarboxamide] | 1600
11 | O=C(NCc1ccc(Cl)cc1)c1cn(CCO)c2ccc(C#CCO)cc2c1=O [Example 30, N-(4-Chlorobenzyl)-1-(2-hydroxyethyl)-6-(3-hydroxy-1-propynyl)-4-oxo-1,4-dihydro-3-quinolinecarboxamide] | 950
12 | CCSCCn1cc(C(=O)NCc2ccc(Cl)cc2)c(=O)c2cc(CN3CCOCC3)ccc21 [Example 60, N-(4-Chlorobenzyl)-1-[2-(ethylsulfanyl)ethyl]-6-(4-morpholinylmethyl)-4-oxo-1,4-dihydro-3-quinolinecarboxamide] | 1100
13 | C=CCOn1cc(C(=O)NCc2ccc(Cl)cc2)c(=O)c2ccccc21 [Example 122, 1-(Allyloxy)-N-(4-chlorobenzyl)-4-oxo-1,4-dihydro-3-quinolinecarboxamide] | 2800
14 | CN(C)CCn1cc(C(=O)NCc2ccc(Cl)cc2)c(=O)c2cc(C#CCO)ccc21 [Example 13, N-(4-Chlorobenzyl)-1-[2-(dimethylamino)ethyl]-6-(3-hydroxy-1-propynyl)-4-oxo-1,4-dihydro-3-quinolinecarboxamide, hydrochloride salt] | 2900
15 | CC(C)(C)OCCOCCn1cc(C(=O)NCc2ccc(Cl)cc2)c(=O)c2cc(CN3CCOCC3)ccc21 [Example 91, 1-{2-[2-(tert-Butoxy)ethoxy]ethyl}-N-(4-chlorobenzyl)-6-(4-morpholinylmethyl)-4-oxo-1,4-dihydro-3-quinolinecarboxamide] | 2100
16 | O=C(NCc1ccc(Cl)cc1)c1cn(CCC[S+]([O-])CCCO)c2ccc(CN3CCOCC3)cc2c1=O (stereo not shown) [Example 70] | 870

Row | SMILES | IC50 [nM]
17 | COC[C@H]1CCCN1n1cc(C(=O)NCc2ccc(Cl)cc2)c(=O)c2cc(CN3CCOCC3)ccc21 [Example 116, N-(4-Chlorobenzyl)-1-[(2R)-2-(methoxymethyl)pyrrolidinyl]-6-(4-morpholinylmethyl)-4-oxo-1,4-dihydro-3-quinolinecarboxamide] | 14000
18 | CN(C)n1cc(C(=O)NCc2ccc(Cl)cc2)c(=O)c2cc(C#CCO)ccc21 [Example 120, N-(4-Chlorobenzyl)-1-(dimethylamino)-6-(3-hydroxy-1-propynyl)-4-oxo-1,4-dihydro-3-quinolinecarboxamide] | 2500
19 | CCC(C)n1cc(C(=O)NCc2ccc(Cl)cc2)c(=O)c2cc(C#CCO)ccc21 (stereo not shown) [Example 2, 1-(sec-butyl)-N-(4-chlorobenzyl)-6-(3-hydroxy-1-propynyl)-4-oxo-1,4-dihydro-3-quinolinecarboxamide] | 1600
20 | C=Cc1ccc2c(c1)c(=O)c(C(=O)NCc1ccc(Cl)cc1)cn2C [Example 54, N-(4-Chlorobenzyl)-1-methyl-4-oxo-6-vinyl-1,4-dihydro-3-quinolinecarboxamide] | 3300
21 | O=C(NCc1ccc(Cl)cc1)c1cn(CCOCCN2CCOCC2)c2ccc(CN3CCOCC3)cc2c1=O [Example 100] | 2900
22 | O=C(NCc1ccc(Cl)cc1)c1cn(N2CCCCC2)c2ccc(CN3CCOCC3)cc2c1=O [Example 114, N-(4-Chlorobenzyl)-6-(4-morpholinylmethyl)-4-oxo-1-(1-piperidinyl)-1,4-dihydro-3-quinolinecarboxamide] | 880
23 | Nn1cc(C(=O)NCc2ccc(Cl)cc2)c(=O)c2cc(CCCO)ccc21 [Example 119, 1-Amino-N-(4-chlorobenzyl)-6-(3-hydroxypropyl)-4-oxo-1,4-dihydro-3-quinolinecarboxamide] | 500
24 | O=C(NCc1ccc(Cl)cc1)c1cn(CCN(CCO)CCO)c2ccc(CN3CCOCC3)cc2c1=O [Example 64] | 950
25 | COCCOCCn1cc(C(=O)NCc2ccc(Cl)cc2)c(=O)c2cc(CN(C)CC#N)ccc21 [Example 86, N-(4-Chlorobenzyl)-6-{[(cyanomethyl)(methyl)amino]methyl}-1-[2-(2-methoxyethoxy)ethyl]-4-oxo-1,4-dihydro-3-quinolinecarboxamide] | 2500
26 | CN(C)n1cc(C(=O)NCc2ccc(Cl)cc2)c(=O)c2cc(CN3CCOCC3)ccc21 [Example 117, N-(4-Chlorobenzyl)-1-(dimethylamino)-6-(4-morpholinylmethyl)-4-oxo-1,4-dihydro-3-quinolinecarboxamide] | 1500
27 | CN1CCN(n2cc(C(=O)NCc3ccc(Cl)cc3)c(=O)c3cc(CN4CCOCC4)ccc32)CC1 [Example 113, N-(4Chlorobenzyl)-1-(4methyl-1-piperazinyl)-6-(4-morpholinylmethyl)-4-oxo-1,4-dihydro-3-quinolinecarboxamide] | 640
28 | CN(CCS(=O)(=O)O)C(=O)CCCCCCC(=O)OCCCc1ccc2c(c1)c(=O)c(C(=O)NCc1ccc(Cl)cc1)cn2C1CC1 | > 20000
29 | O=C(NCc1ccc(Cl)cc1)c1cn(N2CCCC2)c2ccc(CN3CCOCC3)cc2c1=O [Example 115, N-(4-Chlorobenzyl)-6-(4-morpholinylmethyl)-4-oxo-1-(1-pyrrolidinyl)-1,4-dihydro-3-quinolinecarboxamide] | 620
30 | COCCOCCOCCn1cc(C(=O)NCc2ccc(Cl)cc2)c(=O)c2cc(CN3CCOCC3)ccc21 [Example 56, N-(4-Chlorobenzyl)-1-{2-[2-(2-methoxyethoxy)ethoxy]ethyl}-6-(4-morpholinylmethyl)-4-oxo-1,4-dihydro-3-quinolinecarboxamide] | 3000
31 | Cn1cc(C(=O)NCc2ccc(Cl)cc2)c(=O)c2cc(CCCOP(=O)(OC(C)(C)C)OC(C)(C)C)ccc21 [Example 32, Di(tert-butyl) 3-(3-{[(4-chlorobenzyl)amino]carbonyl}-1-methyl-4-oxo-1,4-dihydro-6-quinolinyl)propyl phosphate] | 27200
